Measured values reported in article doi:10.1101/2023.10.24.563163v2, “Targeting cancer with small molecule pan-KRAS degraders” (biorxiv, 2024).
Where two headings read alike, the source gives them in different places.

Legend:
NCI-H358 = test: cells; parameters: Inhibition of cell proliferation, 5 days; details: Homo sapiens, NCI-H358, 120 h; read-out: IC50 Proliferation NCI-H358
Source text: Next, we set out to test the ability of a single pan-KRAS degrading molecule, compound 4, to selectively suppress oncogenic signaling and proliferation in cancer cell lines driven by diverse KRAS mutants. To this end, we first confirmed degradation of KRAS by compound 4 in KRAS-dependent (GP2d, SW620 and NCI-H358 expressing KRAS^G12D, - G12V or -G12C, respectively) as well as in KRAS independent (A-375, HEK293) cell lines (Fig. 3A, fig. S4A). […] Both inhibition and degradation repressed the established markers of MAPK signaling pERK (fig. S4B-D) and DUSP6 (Fig. 3B, fig. S4E) in KRAS dependent cell lines. […] Neither degradation nor inhibition had appreciable antiproliferative effects in the KRAS independent cell lines A-375 and HEK293 (Fig. 3C, fig. S4F). […] Pan-KRAS degradation impacts MAPK signaling and cancer cell proliferation.

GP2d = test: cells; parameters: pERK levels by capillary electrophoresis; details: GP2d, 6 h
KRAS wild type = biological target: T1, KRAS wild type (Homo sapiens, UniProt P01116); parameters: KRAS degradation by capillary electrophoresis (Wes) immunodetection; details: 6 h, degrader
T1 construct: endogenous in A375 / HEK293
T1 sequence (P01116 whole entry): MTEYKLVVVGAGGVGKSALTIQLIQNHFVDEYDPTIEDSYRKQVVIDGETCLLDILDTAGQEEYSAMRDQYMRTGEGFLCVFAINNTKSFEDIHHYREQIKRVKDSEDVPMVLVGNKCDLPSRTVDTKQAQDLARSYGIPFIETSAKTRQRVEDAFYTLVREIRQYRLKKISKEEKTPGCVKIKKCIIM

KRAS^G12C = KRAS^G12C (Homo sapiens, UniProt P01116, G12C); parameters: endogenous in NCI-H358; KRAS degradation by capillary electrophoresis (Wes) immunodetection; details: NCI-H358; 6 h; degrader
KRAS^G12C, sequence (P01116 whole entry G12C): as the sequence (P01116 whole entry) above, with G12C counted along it
Experimental: Protein Detection by Capillary Electrophoresis Cells (50 000) were seeded the day before treatment into 96-well clear-flat bottom plates and incubated overnight (37 °C, humidified tissue culture incubator, 5% CO2). […] At the end of the incubation, medium was removed, cells washed with ice cold PBS, PBS removed and 50 µL lysis buffer (Meso Scale Discovery #R60TX-2) supplemented with 1:100 protease inhibitor solution, 1:100 phosphatase inhibitor I, 1:100 phosphatase inhibitor II (Meso Scale Discovery #R70AA-1), 0.5 µL/mL Benzonase (Novagen #70664-3) and 10 mM dithiothreitol added to each well. Plates with lysis buffer were immediately transferred to -80 °C freezer for at least 2 hours and then thawed on ice. Lysates were transferred to a 96 well V-bottom plate and insoluble debris was pelleted by centrifugation for 20 min. at 4 000 rpm. 40 µL of the supernatant were transferred to a fresh Eppendorf PCR plate. Analysis of protein levels was conducted using the Wes System, ProteinSimple (https://www.bio-techne.com/) as specified by the manufacturer. Briefly, Wes Master Mix (12-230 kDa WES Separation Module, 8 × 25 capillary cartridges, ProteinSimple #SM-W004) and molecular weight markers were prepared as specified in the manufacturer’s recommendations. To detect primary antibodies, anti-rabbit (Protein Simple #DM-001) or anti-mouse (Protein Simple #DM-002) detection modules were used. […]

KRAS^WT = biological target: T2, KRAS^WT (Homo sapiens, UniProt P01116); parameters: KRAS degradation by capillary electrophoresis immunodetection; details: read-out: DC50 24 h A375
T2 construct: endogenous wild type
T2 sequence (P01116 whole entry): as the sequence (P01116 whole entry) above

IC50 (NCI-H358)	IC50 (GP2d)	DC50 (KRAS wild type; A375)	DC50 (KRAS wild type; HEK293)	DC50 (KRAS^G12C)	DC50 (KRAS^WT)	Compound
983 nM	772 nM	751 nM	> 1000 nM	159 nM	455 nM	Cc1ncsc1-c1ccc(CNC(=O)[C@@H]2C[C@@H](O)CN2C(=O)[C@@H](NC(=O)CCCCCN2CCCN(c3nccc(-c4noc([C@@]5(C)CCCc6sc(N)c(C#N)c65)n4)n3)[C@@H](C)C2)C(C)(C)C)cc1 [compound 3]
85.4 nM	3.1 nM	36.7 nM	12.8 nM	19.6 nM	33.4 nM	Cc1ncsc1-c1ccc(CNC(=O)[C@@H]2C[C@@H](O)CN2C(=O)[C@@H](c2cc(OCCCCN3CCCN(c4nccc(-c5noc([C@@]6(C)CCCc7sc(N)c(C#N)c76)n5)n4)[C@@H](C)C3)no2)C(C)C)cc1 [compound 4]
